The values that follow come from ChEMBL document CHEMBL4725318, “New vinyl-1,2,4-triazole derivatives as antimicrobial agents: Synthesis, biological evaluation and molecular docking studies” (2020).

In brackets after ≈: the same amount, converted by molar mass.

What all share (type): functional
Assay [1] has as its system Aspergillus fumigatus. The assay can be described thus: Antifungal activity Aspergillus fumigatus by microdilution method.
Assay [2] deals with Aspergillus versicolor. In words: Antifungal activity Aspergillus versicolor by microdilution method. In general terms: Broth dilution looks for growth in wells or tubes with falling amounts of substance.
In assay [3] the test system is Aspergillus ochraceus. The assay can be described thus: Antifungal activity Aspergillus ochraceus by microdilution method.
For assay [4], the system named is Aspergillus niger. The assay can be described thus: Antifungal activity Aspergillus niger by microdilution method.
Assay [5] deals with Trichoderma viride. In words: Antifungal activity Trichoderma viride by microdilution method.
Assay [6] concerns Talaromyces funiculosus. The assay can be described thus: Antifungal activity Penicillium funiculosum by microdilution method.
For assay [7], the system named is Penicillium ochrochloron. In words: Antifungal activity Penicillium ochrochloron by microdilution method.
In assay [8] the test system is Penicillium cyclopium. In words: Antifungal activity Penicillium verrucosum var. cyclopium by microdilution method.
The subject of assay [9] is Aspergillus fumigatus. In words: Fungicidal activity Aspergillus fumigatus.
Assay [10] deals with Aspergillus versicolor. The assay can be described thus: Fungicidal activity Aspergillus versicolor.
The test system of assay [11] is Aspergillus ochraceus. The assay can be described thus: Fungicidal activity Aspergillus ochraceus.
Assay [12] has as its system Aspergillus niger. The assay can be described thus: Fungicidal activity Aspergillus niger.
The subject of assay [13] is Trichoderma viride. In words: Fungicidal activity Trichoderma viride.
For assay [14], the system named is Talaromyces funiculosus. The assay can be described thus: Fungicidal activity Penicillium funiculosum.
The subject of assay [15] is Penicillium ochrochloron. The assay can be described thus: Fungicidal activity Penicillium ochrochloron.
Assay [16] has as its system Penicillium cyclopium. In words: Fungicidal activity Penicillium verrucosum var. cyclopium.
The test system of assay [17] is Bacillus subtilis. In words: Antibacterial activity against Bacillus subtilis by microdilution method.
For assay [18], the system named is Pseudomonas fluorescens. The assay can be described thus: Antibacterial activity against Pseudomonas fluorescens by microdilution method.
The subject of assay [19] is Erwinia amylovora. The assay can be described thus: Antibacterial activity against Erwinia amylovora by microdilution method.
In assay [20] the test system is Pectobacterium carotovorum. The assay can be described thus: Antibacterial activity against Erwinia carotovora by microdilution method.
In assay [21] the test system is Xanthomonas campestris. In words: Antibacterial activity against Xanthomonas campestris by microdilution method.
Assay [22] relates to Bacillus subtilis. The assay can be described thus: Bactericidal activity against Bacillus subtilis.
In assay [23] the test system is Pseudomonas fluorescens. The assay can be described thus: Bactericidal activity against Pseudomonas fluorescens.
In assay [24] the test system is Erwinia amylovora. In words: Bactericidal activity against Erwinia amylovora.
For assay [25], the system named is Pectobacterium carotovorum. The assay can be described thus: Bactericidal activity against Erwinia carotovora.
The subject of assay [26] is Xanthomonas campestris. The assay can be described thus: Bactericidal activity against Xanthomonas campestris.

As for `c1ccc(-c2ccc(C(c3ccccc3)n3ccnc3)cc2)cc1` (stereo not drawn) [BIFONAZOLE], the MIC against Aspergillus fumigatus [1] is 480 µM (≈ 149 µg/mL); with Aspergillus versicolor [2], 320 µM (≈ 99.3 µg/mL); with Aspergillus ochraceus [3], 480 µM (≈ 149 µg/mL); in the assay on Aspergillus niger [4], 480 µM (≈ 149 µg/mL); against Trichoderma viride [5], 480 µM (≈ 149 µg/mL); against Talaromyces funiculosus [6], 640 µM (≈ 199 µg/mL). In addition, the minimum inhibitory concentration (MIC) in the assay on Penicillium ochrochloron [7] turned out to be 640 µM (≈ 199 µg/mL); against Penicillium cyclopium [8], 320 µM (≈ 99.3 µg/mL). In addition, the MFC stood at 640 µM (≈ 199 µg/mL) against Aspergillus fumigatus [9]; 640 µM (≈ 199 µg/mL) against Aspergillus versicolor [10]; 640 µM (≈ 199 µg/mL) against Aspergillus ochraceus [11]; 640 µM (≈ 199 µg/mL) against Aspergillus niger [12]; 640 µM (≈ 199 µg/mL) against Trichoderma viride [13]; 810 µM (≈ 251 µg/mL) against Talaromyces funiculosus [14]. In addition, the MFC against Penicillium ochrochloron [15] is 810 µM (≈ 251 µg/mL); against Penicillium cyclopium [16] it was 640 µM (≈ 199 µg/mL).
For the compound `CC1(C)S[C@@H]2[C@H](NC(=O)[C@H](N)c3ccccc3)C(=O)N2[C@H]1C(=O)O` [AMPICILLIN], the MIC in the assay on Bacillus subtilis [17] came out at 0.2 µM (≈ 0.0699 µg/mL); in the assay on Pseudomonas fluorescens [18], 8.6 µM (≈ 3 µg/mL); with Erwinia amylovora [19] it was 0.25 µM (≈ 0.0874 µg/mL); in assay [20], 0.1 µM (≈ 0.0349 µg/mL); against Xanthomonas campestris [21], 0.2 µM (≈ 0.0699 µg/mL). Besides, the MBC is 0.2 µM (≈ 0.0699 µg/mL) against Bacillus subtilis [22]; 8.6 µM (≈ 3 µg/mL) against Pseudomonas fluorescens [23]; 0.5 µM (≈ 0.175 µg/mL) in the assay on Erwinia amylovora [24]; 0.2 µM (≈ 0.0699 µg/mL) in assay [25]; 0.2 µM (≈ 0.0699 µg/mL) in the assay on Xanthomonas campestris [26].
Regarding `O=C(/C(=C/c1cccc(O)c1)n1cncn1)c1ccccc1`, the minimal inhibitory concentration (MIC) is 6.9 µM (≈ 2.01 µg/mL) with Bacillus subtilis [17]; 1.7 µM (≈ 0.495 µg/mL) against Pseudomonas fluorescens [18]; 1.7 µM (≈ 0.495 µg/mL) against Erwinia amylovora [19]; 1.7 µM (≈ 0.495 µg/mL) in assay [20]; 1.7 µM (≈ 0.495 µg/mL) against Xanthomonas campestris [21]; 380 µM (≈ 111 µg/mL) with Aspergillus fumigatus [1]. Further, the MIC against Aspergillus versicolor [2] was 260 µM (≈ 75.7 µg/mL); with Aspergillus ochraceus [3], 190 µM (≈ 55.3 µg/mL); with Aspergillus niger [4], 520 µM (≈ 151 µg/mL); in the assay with Trichoderma viride [5] it was 190 µM (≈ 55.3 µg/mL); against Talaromyces funiculosus [6], 260 µM (≈ 75.7 µg/mL); in the assay on Penicillium ochrochloron [7], 260 µM (≈ 75.7 µg/mL). Further, the MIC with Penicillium cyclopium [8] was determined as 380 µM (≈ 111 µg/mL). For the same compound, the MBC with Bacillus subtilis [22] stood at 6.9 µM (≈ 2.01 µg/mL); in the assay with Pseudomonas fluorescens [23], 1.7 µM (≈ 0.495 µg/mL); with Erwinia amylovora [24], 3.4 µM (≈ 0.99 µg/mL); in assay [25] it was 1.7 µM (≈ 0.495 µg/mL); with Xanthomonas campestris [26], 3.4 µM (≈ 0.99 µg/mL). For the same compound, the MFC against Aspergillus fumigatus [9] is 520 µM (≈ 151 µg/mL); against Aspergillus versicolor [10], 520 µM (≈ 151 µg/mL); against Aspergillus ochraceus [11], 520 µM (≈ 151 µg/mL); with Aspergillus niger [12], 100 µM (≈ 29.1 µg/mL); in the assay with Trichoderma viride [13] it was 260 µM (≈ 75.7 µg/mL); in the assay on Talaromyces funiculosus [14] it was 520 µM (≈ 151 µg/mL). Moreover, the MFC with Penicillium ochrochloron [15] and in the assay on Penicillium cyclopium [16] was 520 µM (≈ 151 µg/mL) in each case.
Regarding `O=C(/C(=C/c1ccccc1)n1cncn1)c1ccc(Cl)cc1Cl`, the MIC in the assay on Bacillus subtilis [17] worked out at 2.9 µM (≈ 0.998 µg/mL); in the assay with Pseudomonas fluorescens [18], 2.9 µM (≈ 0.998 µg/mL); in the assay with Erwinia amylovora [19] it was 2.9 µM (≈ 0.998 µg/mL); in [20], 2.9 µM (≈ 0.998 µg/mL); against Xanthomonas campestris [21], 2.9 µM (≈ 0.998 µg/mL); in the assay on Aspergillus fumigatus [1], 160 µM (≈ 55.1 µg/mL). The MIC in the assay with Aspergillus versicolor [2] came to 80 µM (≈ 27.5 µg/mL); against Aspergillus ochraceus [3] it was 100 µM (≈ 34.4 µg/mL); against Aspergillus niger [4], 160 µM (≈ 55.1 µg/mL); against Trichoderma viride [5], 50 µM (≈ 17.2 µg/mL); with Talaromyces funiculosus [6] it was 220 µM (≈ 75.7 µg/mL); against Penicillium ochrochloron [7], 160 µM (≈ 55.1 µg/mL). Also, inhibition of growth with Penicillium cyclopium [8] (MIC) required 220 µM (≈ 75.7 µg/mL). The MBC against Bacillus subtilis [22] amounted to 5.8 µM (≈ 2 µg/mL); against Pseudomonas fluorescens [23], 2.9 µM (≈ 0.998 µg/mL); in the assay on Erwinia amylovora [24] it was 2.9 µM (≈ 0.998 µg/mL); in [25], 5.8 µM (≈ 2 µg/mL); against Xanthomonas campestris [26], 2.9 µM (≈ 0.998 µg/mL). The MFC in the assay with Aspergillus fumigatus [9] was found to be 220 µM (≈ 75.7 µg/mL); in the assay with Aspergillus versicolor [10], 220 µM (≈ 75.7 µg/mL); with Aspergillus ochraceus [11], 220 µM (≈ 75.7 µg/mL); with Aspergillus niger [12], 220 µM (≈ 75.7 µg/mL); against Trichoderma viride [13], 100 µM (≈ 34.4 µg/mL); in the assay on Talaromyces funiculosus [14], 440 µM (≈ 151 µg/mL). Also, the minimal fungicidal concentration (MFC) against Penicillium ochrochloron [15] and in the assay with Penicillium cyclopium [16] was 440 µM (≈ 151 µg/mL) each time.
As to `O=C(N[C@H](CO)[C@H](O)c1ccc([N+](=O)[O-])cc1)C(Cl)Cl` [CHLORAMPHENICOL], the minimal inhibitory concentration (MIC) in the assay with Bacillus subtilis [17] worked out at 0.3 µM (≈ 0.0969 µg/mL); in the assay on Pseudomonas fluorescens [18], 0.5 µM (≈ 0.162 µg/mL); in the assay on Erwinia amylovora [19], 0.15 µM (≈ 0.0485 µg/mL); in assay [20], 0.25 µM (≈ 0.0808 µg/mL); in the assay with Xanthomonas campestris [21] it was 0.1 µM (≈ 0.0323 µg/mL). Besides, the minimum bactericidal concentration (MBC) is 0.3 µM (≈ 0.0969 µg/mL) against Bacillus subtilis [22]; 0.5 µM (≈ 0.162 µg/mL) with Pseudomonas fluorescens [23]; 0.3 µM (≈ 0.0969 µg/mL) in the assay with Erwinia amylovora [24]; 0.5 µM (≈ 0.162 µg/mL) in assay [25]; 0.1 µM (≈ 0.0323 µg/mL) in the assay with Xanthomonas campestris [26].

The term MIC denotes the lowest concentration found to suppress growth. For orientation: MFC means the lowest tested concentration that kills the fungus rather than only halting it. Lower therefore signals greater fungicidal potency. Broadly, the MBC is the smallest concentration meeting the test's criterion for killing. A high value points to less potent killing.
